Measurements: article PMC7690883, “Pseudoceratonic Acid and Moloka’iamine Derivatives from the Red Sea Verongiid Sponge Pseudoceratina arabica” (Marine Drugs, 2020)
Converted amounts (≈) assume the structure as drawn. Where two headings read alike, the source gives them in different places.

Legend:
Format in all cases: cell-based
S. aureus (ATCC 25923) = test: Disc diffusion assay, S. aureus; details: Staphylococcus aureus
Protocol: (§1) The antimicrobial evaluation of the compounds against E. coli, S. aureus and C. albicans at 50 µg/disc was carried out using disc diffusion assay. […] The other compounds were weakly active against the three pathogens with inhibition zones of 6–9 mm (Table 3).
(§2) Using S. aureus (ATCC 25923), E. coli (ATCC 25922), and C. albicans (ATCC 14053), a disc diffusion assay was carried out to evaluate the antimicrobial effects of 1–6 at 50 µg/disc as reported before. Ketoconazole (50 µg/disc) and ciprofloxacin (5.0 µg/disc) served as antibiotics controls.

S. aureus = test: MIC determination (dilution method), S. aureus; details: Staphylococcus aureus; Mueller Hinton Broth, 48 h at 37 °C
Protocol: (§3) The minimal inhibitory concentrations (MICs) of the compounds were evaluated using a […] method (Table 3).
(§4) The MIC values of the compounds were determined of using a macrodilution method. Briefly, the compounds were dissolved in MeOH at a final concentration of 2000 µg/mL. Ciprofloxacin and ketoconazole were dissolved in H2O at final concentrations of 100 µg/mL. Syringe filters (0.2 µm) were used for sterilization of all stock solutions. Two-fold serial dilutions of the solutions were used in Mueller Hinton Broth (MHB) to give concentrations of 1.0–1000 µg/mL (for the compounds) and 0.125–64 µg/mL (for ciprofloxacin and ketoconazole). 500 µL from the 10^6 CFU/mL microbial suspensions were added in sterile tubes to give inoculua of 5 × 10^5 CFU/mL. Further, 100 µL of the stock solutions of the compounds and antibiotics were added into the tubes. Control tubes with test microorganisms only and MeOH were prepared. […] The tubes were kept for 48 h at 37 °C.

E. coli (ATCC 25922) = test: Disc diffusion assay, E. coli; details: Escherichia coli
Protocol: as §1, §2

C. albicans = test: MIC determination (dilution method), C. albicans; details: Candida albicans, read-out: C. albicans MIC
Protocol: as §3, §4

C. albicans (ATCC 14053) = test: Disc diffusion assay, C. albicans; details: Candida albicans
Protocol: as §1, §2

[1] = system: HeLa (human cervical carcinoma); test: MTT cytotoxicity assay, HeLa; details: 72 h, read-out: IC50 HeLa
Protocol: (§5) The cytotoxic and antiproliferative effects of the compounds against MDA-MB-231, HeLa, and HCT 116 cell lines were evaluated using MTT (3-(4,5-Dimethylthiazol-2-yl)-2,5-diphenyltetrazolium bromide) assay (Table 4).
(§6) The cell lines MDA-MB-231 (triple-negative breast cancer, ATCC HTB-26), HeLa (human cervical carcinoma, ATCC CCL-2), HCT 116 (colorectal carcinoma, ATCC CCL-247) were used for the evaluation of the cytotoxicity of the compounds. In addition, NHDF (normal human dermal fibroblasts) cells were used to evaluate the selectivity of compound 2 against the cancerous cell lines. DMEM, with Pen–Strep. (1%) and FBS (10%), was used for culturing MDA-MB-231 cells, while RPMI 1640, with Pen–Strep. (1%) and FBS (10%), was used for culturing HCT 116 and HeLa cells. Finally, NHDF cells were cultured in fibroblast basal medium complemented with Pen–Strep. (1% v/v), heat-inactivated fetal bovine serum (FBS) (2% v/v), insulin (5 µg/mL) and basic fibroblast growth factor (1 ng/mL). Culture of all cells was completed at 37 °C with 5% CO2 and 95% humidity.
(§7) The cytotoxic effects of the compounds were evaluated using MTT assay as reported earlier. Briefly, all cells kept overnight in 5% CO2/air and at 37 °C. Tested compounds were added to the upper row of a 96-well plate followed by 1:4 (v/v) serial dilutions. After 72 h incubation of the compounds with the cells (10,000 cells/well for HCT 116 and NHDF, and 12,000 cells/well for HeLa and MDA-MB-231), the cells’ viability was calculated at 490 nm as reported before. 5-Fluorouracil (5-FU) and DMSO were used as positive and negative controls. The IC50 values reported in […] represent the mean of three separate experiments. A concentration of 10 µM was set as a cutoff value in this assay.

[2] = system: HCT 116 (colorectal carcinoma); test: MTT cytotoxicity assay, HCT 116; details: Homo sapiens, read-out: IC50 HCT 116
Protocol: as §5, §6, §7

E. coli = test: MIC determination (dilution method), E. coli; details: Escherichia coli; Mueller Hinton Broth, 48 h at 37 °C
Protocol: as §3, §4

[3] = system: MDA-MB-231 (triple-negative breast cancer); test: MTT cytotoxicity assay, MDA-MB-231; details: Homo sapiens, read-out: IC50 MDA-MB-231
Protocol: as §5, §6, §7

[4] = system: NHDF (normal human dermal fibroblasts); test: MTT cytotoxicity assay, NHDF; details: 72 h
Protocol: as §5, §6
The cytotoxic effects of the compounds were evaluated using MTT assay as reported earlier. […] After 72 h incubation of the compounds with the cells (10,000 cells/well for HCT 116 and NHDF, and 12,000 cells/well for HeLa and MDA-MB-231), the cells’ viability was calculated at 490 nm as reported before. […]

[5] = ATCC25923, read-out: S. aureus Inhibition Zone
[6] = ATCC25922, read-out: E. coli Inhibition Zone
[7] = ATCC14053, read-out: C. albicans Inhibition Zone
[8] = Mueller Hinton Broth, 48 h at 37 °C
[9] = ATCC14053, disc diffusion, 50 µg/disc (compounds and ketoconazole), read-out: C. albicans Inhibition Zone
[10] = Homo sapiens, HeLa, MTT, cutoff 10 µM
[11] = HCT-116, MTT, 72 h, cutoff 10 µM
[12] = MDA-MB-231, MTT, 72 h, cutoff 10 µM

SMILES | zone of inhibition at 50 µg/disc (S. aureus (ATCC 25923); [5]) | MIC (S. aureus) | zone of inhibition at 50 µg/disc (E. coli (ATCC 25922); [6]) | MIC (C. albicans; 48 h) | zone of inhibition at 50 µg/disc (C. albicans (ATCC 14053); [7]) | IC50 ([1]; Homo sapiens, HeLa) | IC50 ([2]; HCT-116, 72 h) | MIC (E. coli) | IC50 ([3]; MDA-MB-231, 72 h) | IC50 [1, 10] | IC50 [2, 11] | IC50 [3, 12] | other results
NCCCOc1c(Br)cc(CCN)cc1Br [Compound 4, moloka’iamine] | 7 mm | 125 µg/mL (≈ 355 µM) | 6 mm | 125 µg/mL (≈ 355 µM) | 6 mm | ≥ 10 µM | ≥ 10 µM | 125 µg/mL (≈ 355 µM) | ≥ 10 µM | – | – | – | –
CCOC(=O)NCCCOc1c(Br)cc(CCN)cc1Br [Compound 3, ceratinine O] | 8 mm | 64 µg/mL (≈ 151 µM) | 6 mm | 64 µg/mL (≈ 151 µM) | 9 mm | ≥ 10 µM | 9.5 ± 0.85 µM | 125 µg/mL (≈ 295 µM) | ≥ 10 µM | – | – | – | –
CC(=O)N1CCN(c2ccc(OCC3COC(Cn4ccnc4)(c4ccc(Cl)cc4Cl)O3)cc2)CC1 (centres unmarked) [Ketoconazole, reference compound] | – | – | – | – | – | – | – | – | – | – | – | – | MIC (C. albicans; [8]): 0.5 µg/mL (≈ 0.941 µM); zone of inhibition at 50 µg/disc (C. albicans (ATCC 14053); [9]): 30 mm
O=C(O)c1cn(C2CC2)c2cc(N3CCNCC3)c(F)cc2c1=O [Ciprofloxacin, reference compound] | – | 0.5 µg/mL (≈ 1.51 µM) | – | – | – | – | – | 0.25 µg/mL (≈ 0.754 µM) | – | – | – | – | zone of inhibition at 5 µg/disc (S. aureus (ATCC 25923); ATCC25923, disc diffusion, ciprofloxacin 5.0 µg/disc): 22 mm; zone of inhibition at 5 µg/disc (E. coli (ATCC 25922); ATCC25922, disc diffusion, ciprofloxacin 5.0 µg/disc): 30 mm
N#CC(=O)NCCCOc1c(Br)cc(CCN)cc1Br [Compound 6, ceratinamine] | 9 mm | 64 µg/mL (≈ 158 µM) | 7 mm | 32 µg/mL (≈ 79 µM) | 12 mm | ≥ 10 µM | ≥ 10 µM | 125 µg/mL (≈ 309 µM) | ≥ 10 µM | – | – | – | –
O=c1[nH]cc(F)c(=O)[nH]1 [Compound 5-FU, 5-Fluorouracil, reference compound] | – | – | – | – | – | – | – | – | – | 12.3 ± 0.25 µM | 4.6 ± 0.23 µM | 13 ± 0.3 µM | –
N#CC(=O)NCCCOc1c(Br)cc(CCNC=C2C(=O)C=CC2=O)cc1Br [Compound 2, ceratinine N] | – | 125 µg/mL (≈ 245 µM) | – | – | – | – | – | 125 µg/mL (≈ 245 µM) | – | 2.1 µM | 2.9 ± 0.18 µM | 3.1 ± 0.29 µM | zone of inhibition at 50 µg/disc (S. aureus (ATCC 25923); ATCC25923, disc diffusion, 50 µg/disc, read-out: S. aureus Inhibition Zone): 7 mm; zone of inhibition at 50 µg/disc (E. coli (ATCC 25922); ATCC25922, disc diffusion, 50 µg/disc, read-out: E. coli Inhibition Zone): 6 mm; MIC (C. albicans; [8]): 16 µg/mL (≈ 31.3 µM); zone of inhibition at 50 µg/disc (C. albicans (ATCC 14053); [9]): 16 mm; IC50 ([1]; MTT, cutoff 10 µM): 2.3 ± 0.16 µM; IC50 [4]: 3.5 ± 0.3 µM
NCCCOc1c(Br)cc(C(O)CN)cc1Br (centres unmarked) [Compound 5, hydroxymoloka’iamine] | – | – | – | – | – | – | – | – | – | ≥ 10 µM | ≥ 10 µM | ≥ 10 µM | –
